Assay results as given in ChEMBL document CHEMBL1156829 (Proc Natl Acad Sci U S A, 2008).
pEC50: −log10 of the molar value.

Key:
[1] = NOVARTIS: Cytotoxicity against human hepatocellular carcinoma cell line (Huh7); assay type: toxicity, cell-based, Huh-7; settings: Huh7 cells (hepatocellular carcinoma cell line)
Plasmodium falciparum [2] = test: NOVARTIS: Inhibition of Plasmodium falciparum 3D7 (drug-susceptible) proliferation in erythrocyte-based infection assay; assay type: functional, organism-based; settings: Plasmodium falciparum, 3D7
Plasmodium falciparum [3] = test: NOVARTIS: Inhibition of Plasmodium falciparum W2 (drug-resistant) proliferation in erythrocyte-based infection assay; assay type: functional, organism-based; settings: Plasmodium falciparum, W2; read-out: EC50

| Structure (SMILES) | CC50 [1] [nM] | pEC50 (Plasmodium falciparum [2]) | pEC50 (Plasmodium falciparum [3]) |
| --- | --- | --- | --- |
| COc1ccc(-n2c(CNC(=O)c3cccc4ccccc34)n[nH]c2=S)cc1 | > 100000 | 5.96 | 5.72 |
| Cc1ccc(C)c(Oc2c(C(F)(F)F)oc3c(CN4CCN(C)CC4)c(O)ccc3c2=O)c1 | > 100000 | 6.08 | 6.73 |
| O=C(ON(C(=O)c1ccc(F)cc1)C1C2CC3CC(C2)CC1C3)c1ccc(F)cc1 (stereo not drawn) | > 10000 | < 5.90 | 7.57 |
| COc1ccc(NC(=O)CCn2c(=S)oc3ccccc32)c([N+](=O)[O-])c1 | > 10000 | < 5.90 | < 6.46 |
| Oc1ccc(-c2ccc(F)cc2)cc1CNCCCn1ccnc1 | > 10000 | 5.98 | 5.85 |
| CC(C)c1ccc(C=NNC(=O)c2ccccc2O)cc1 | > 10000 | < 5.90 | 5.78 |
| c1ccc(CSc2scnc2[P+](c2ccccc2)(c2ccccc2)c2ccccc2)cc1 | 3190 | 6.47 | 6.25 |
| CO[C@H](C(=O)[C@@H](O)[C@@H](C)O)[C@@H]1Cc2cc3cc(O[C@H]4C[C@@H](O[C@@H]5C[C@@H](O)[C@@H](O)[C@@H](C)O5)[C@@H](O)[C@H](C)O4)c(C)c(O)c3c(O)c2C(=O)[C@H]1O[C@H]1C[C@@H](O[C@H]2C[C@@H](O[C@H]3C[C@](C)(O)[C@@H](O)[C@H](C)O3)[C@H](O)[C@@H](C)O2)[C@H](O)[C@H](C)O1 | > 10000 | 6.30 | 6.68 |
| CC1CN(C)C(C)CC1=NOC(=O)c1ccc(Cl)c(Cl)c1 (stereo not drawn) | > 10000 | < 5.90 | < 6.07 |
| O=C(CCCn1c(SCc2ccccc2F)nc2ccccc2c1=O)N1CCCC1 | > 10000 | 5.98 | < 5.84 |
| Cc1cc(Nc2ccc(Br)cc2)nc2ccccc12 | > 10000 | < 5.90 | 5.77 |
| CCOc1ccc(NC(=O)N(CCC(C)C)C(C)c2nc3ccccc3c(=O)n2-c2cccc(Cl)c2C)cc1 (stereo not drawn) | > 10000 | 5.92 | 5.94 |
| Cc1nc(NCCCN(C)C)c2sc3nc4c(cc3c2n1)COC(C)(C)C4 | > 100000 | < 4.90 | 5.79 |
| OC1(c2ccc(Cl)c(C(F)(F)F)c2)CCN(CCOC2c3ccccc3CSc3ccc(Cl)cc32)CC1 (stereo not drawn) | 19200 | 5.99 | 6.05 |
| Cc1cccc(NC(=O)Nc2cccnc2)c1NC(=O)Nc1cccnc1 | > 10000 | < 5.90 | < 5.98 |
| OC1(c2ccc(Br)cc2)CCN(C2CCN(CCc3ccccc3)CC2)CC1 | 4770 | 6.87 | 6.28 |
| COc1cc(C2C(C(=O)OCCc3ccccc3)=C(C)NC3=C2C(=O)CC(c2ccc(Cl)cc2)C3)ccc1OCc1ccccc1 (stereo not drawn) | > 100000 | 5.16 | 5.80 |
| CCOc1ccc(C(=O)N2CCN(Cc3ccccc3)CC2)cc1 | > 100000 | < 5.44 | 6.49 |
| CCCCCc1ccc(C(=O)N(C)CCCNc2ccnc3cc(Cl)ccc23)cc1 | 15100 | 6.60 | 6.51 |
| O=C(Nc1ccccc1C(F)(F)F)N1CCC(N2CCCCC2)CC1 | > 100000 | < 5.02 | 5.82 |
| CCOC(=O)c1cccc(NC(=O)CCn2c(-c3ccc(F)cc3)cc(C(=O)OCC)c2C)c1 | > 100000 | 7.23 | 7.05 |
| COc1cc(CNNc2nc3cc(Cl)ccc3[nH]2)cc(OC)c1OC | > 10000 | 6.51 | 6.27 |

| Structure (SMILES) | CC50 [1] [nM] | pEC50 (Plasmodium falciparum [2]) | pEC50 (Plasmodium falciparum [3]) |
| --- | --- | --- | --- |
| O=S(=O)(/C=C/c1ccccc1)NCCCCNc1ccnc2cc(Cl)ccc12 | 1480 | 6.39 | 6.40 |
| OC(CCNC1CCCCC1)COc1cccc2ccccc12 (stereo not drawn) | > 10000 | 6.10 | 6.44 |
| CCN(c1ccccc1)S(=O)(=O)c1ccc(F)c(C(=O)Nc2c(C)cccc2C)c1 | > 100000 | < 4.90 | 5.61 |
| CCOC(=O)c1cnc2ccc(C(C)C)cc2c1O | > 100000 | 5.94 | 5.94 |
| CC[n+]1cccc2ccc3cccnc3c21 | > 100000 | 6.26 | 6.59 |
| Oc1c(CN2CCN(Cc3ccc4cccnc4c3O)CC2)ccc2cccnc12 | > 89300 | 6.25 | 6.50 |
| CN(C)CCCNC1=NC=NC2C=C(Cl)C=CC12 (stereo not drawn) | > 100000 | 6.54 | 6.15 |
| O=C1CC(c2nc3ccccc3n2CCCOc2ccccc2)CN1c1ccc(F)cc1 (stereo not drawn) | > 10000 | < 6.05 | 6.62 |
| COc1cc(OC)c(NC(=O)C2c3ccccc3C(=O)N(C)C2c2cccs2)cc1Cl (stereo not drawn) | > 100000 | 6.49 | 6.51 |
| COc1ccc(C2=NN(C(=O)CCC(=O)O)C(c3ccccc3F)C2)cc1 (stereo not drawn) | > 10000 | < 5.90 | 6.22 |
| COc1cc(C(=O)/C=C/Nc2ccc(N(C)C)cc2)cc(OC)c1OC | > 10000 | < 5.92 | < 5.90 |
| Nc1cc(C(=O)Nc2ccc(C3=NCCN3)cc2)ccc1C(=O)Nc1ccc(C2=NCCN2)cc1 | 90600 | 6.54 | 6.75 |
| COC(=O)C1CCN(C(=O)COC(c2ccccc2)c2cccnc2Cl)CC1 (stereo not drawn) | > 2450 | < 5.90 | > 8.10 |
| Cc1ccc(CNC(=O)CCCCCn2c(SCc3cccc([N+](=O)[O-])c3)nc3ccsc3c2=O)cc1 | > 100000 | 5.20 | 5.80 |
| CC(C)(C)CC(C)(C)Nc1c(-c2ccccc2OC(=O)c2ccc([N+](=O)[O-])cc2)nc2ccccn12 | 1480 | 6.60 | 8.28 |
| COc1ccc(C2CC(=O)C3=C(C2)NC(C)=C(C(=O)OC(C)C)C3c2ccc([N+](=O)[O-])cc2)cc1OC (stereo not drawn) | > 100000 | 7.50 | 7.50 |
| Cc1ncc(CN2CCC(C(=O)Nc3ccc(-n4cccn4)cc3)CC2)s1 | > 100000 | 5.50 | 5.55 |
| COc1ccccc1CNc1ncc(C(=O)NCCCN2CCCC2=O)c(NCCc2ccccc2)n1 | > 10000 | 6.67 | 5.93 |
| c1ccc2cc3c(Nc4ccc(N5CCCCC5)cc4)ccnc3cc2c1 | 67700 | 6.13 | 5.91 |
| COc1c([N+](=O)[O-])cc2c(c1Br)OC1(C=C2)N(C)c2ccccc2C1(C)C (stereo not drawn) | > 10000 | 5.76 | < 5.80 |
| CCCC(=O)N(C/C=C/c1ccccc1OC)CCN1CCN(C(=O)Nc2cccc(C)c2)CC1 | > 10000 | < 5.90 | 6.83 |
| O=C(O)CSC(C(=O)Nc1ccc(Cl)cc1)c1ccccc1 (stereo not drawn) | > 10000 | < 5.79 | < 5.87 |

| Structure (SMILES) | CC50 [1] [nM] | pEC50 (Plasmodium falciparum [2]) | pEC50 (Plasmodium falciparum [3]) |
| --- | --- | --- | --- |
| C[C@H]1[C@@H](O)O[C@@H]2O[C@@]3(C)CC[C@H]4[C@H](C)CC[C@@H]1[C@@]24OO3 [ARTENIMOL] | 44900 | 7.93 | 8.15 |
| CCCCCCOc1ccc(C(C)=NNC2=NCCN2)cc1[N+](=O)[O-] | 7320 | 6.64 | 6.10 |
| CC[n+]1c(/C=C/C=C2\N(C)c3ccccc3C2(C)C)n(CCCOC(C)=O)c2ccccc21 | > 10000 | 6.49 | 6.38 |
| Cc1nc2ccc(-c3ccc4nc(C)[nH]c4c3)cc2[nH]1 | 8630 | 5.68 | 6.07 |
| CC(C)(C)CC(C)(C)Nc1c(-c2ccccc2OC(=O)c2ccc(Br)cc2)nc2ccccn12 | > 1430 | 5.88 | 7.02 |
| C=CCn1cc(C=NNc2nc3ccccc3[nH]2)c2ccccc21 | 18400 | 7.04 | 6.66 |
| N#Cc1cc(-c2cccc(C(F)(F)F)c2)cn(Cc2c(Cl)cccc2Cl)c1=O | > 100000 | < 5.13 | 5.29 |
| CN1C=CC=C/C1=C\C=C1\C=Nc2ccccc21 | > 10000 | 6.56 | 6.65 |
| CC(=NNC(=O)c1ccc([N+](=O)[O-])cc1)c1cccc([N+](=O)[O-])c1 | > 10000 | < 5.85 | < 6.39 |
| COC(=O)CC(NS(=O)(=O)c1ccc(OC)cc1)c1ccc2c(c1)OCO2 (stereo not drawn) | > 10300 | 5.84 | > 7.63 |
| CCCCn1c(=N)n(CC(O)c2ccc(Cl)c(Cl)c2)c2ccccc21 (stereo not drawn) | 6240 | 7.20 | 6.92 |
| COc1ccc(OCC(O)CNC2CCN(CC(O)COc3ccc(Cl)c(Cl)c3)CC2)cc1 (stereo not drawn) | 9140 | 6.48 | 6.28 |
| O=c1c2c([nH]c3ccccc13)CCCCCCCCCC2 | > 100000 | 6.56 | 6.17 |
| CC(C)(C)Cc1ccc(OCCCC(=O)Nc2ccc(Cl)c(N)c2)c(CC(C)(C)C)c1 | > 100000 | 5.76 | 6.07 |
| O=C(O)c1ccc2c(c1)N=C(c1ccccc1)N(Cc1cccnc1)C2 | > 10000 | 6.32 | 7.18 |
| Cc1ccc2cc3c(N)c4cccc(C)c4nc3nc2c1 | > 10000 | 6.94 | 7.13 |
| CCCCn1c(=N)c(C(=O)NC(C)c2ccccc2)cc2c(=O)n3cccc(C)c3nc21 (stereo not drawn) | > 100000 | 5.86 | < 5.25 |
| C=C[C@H]1CN2CC[C@H]1C[C@H]2[C@H](OC(=O)c1ccc(Cl)cc1)c1ccnc2ccccc12 | > 10000 | 6.39 | 6.25 |
| CCOC(=O)c1c(NC(C)=O)sc2c(O)c(CNC3CCCCC3)ccc12 | > 100000 | 7.09 | 7.67 |
| COc1ccc(/C=C/C(=O)NC(=O)c2ccccc2O)cc1OC | > 10000 | 5.97 | 5.95 |
| COC(=O)[C@@H]1C[C@@H](NC(=O)c2ccc(OC)cc2OC)CN1C/C(C)=C/c1ccccc1 | > 10000 | 6.36 | 6.09 |
| O=S(=O)(ON=C1CCCc2sc(Cl)cc21)c1ccccc1 | > 100000 | 6.80 | 7.39 |
